These results are taken from patent US9358297B2, “Posaconazole intravenous solution formulations stabilized by substituted β-cyclodextrin” (Merck Sharp & Dohme Corp., priority 2010, dated 2016).

Converted amounts (≈) assume the structure as drawn. Where two headings read alike, the source gives them in different places.

A short description of data set [1]: Posaconazole solubility in modified β and γ-cyclodextrins. The class given is physicochemical. Conditions: for solubility: pH 4.5, aqueous with cosolvent or surfactant or cyclodextrin; for fold more posaconazole solubilized than Captisol: 100 mM cyclodextrin solutions. The procedure:
The solubilities of posaconazole in each of several modified β and γ-cyclodextrins were evaluated. Solubilization of posaconazole was tested with three gamma cyclodextrins; SBE (5.2)-gamma, SBE (5.2) Et (3.9)-gamma and SBE (5.2) Et (4.9)-gamma cyclodextrin, (CyDex, Inc.).
On the other hand, some changes in β-cyclodextrin substitutions did lead to greater solubilization. Utilizing 100 mM cylodextrin solutions at pH 4.5, solubilization of posaconazole with SBE (4.6)-β, SBE (4.6)-Et (3.5)-β and SBE (4.6)-Et (8.5)-β cyclodextrins, versus Captisol®, was evaluated. The SBE (4.6)-Et (3.5)-β and SBE (4.6)-Et (8.5)-β cyclodextrins solubilized 2.6 and 6.6 fold more posaconazole (respectively) than did Captisol® (See FIG. 2). However, the extensive Captisol® safety information outweighed the potential benefits of greater solubilization and, for this reason, formulations with other sulfobutyl ether cyclodextrins were not further developed.

The nature of data set [2]: Posaconazole solubility in acidified Captisol solutions. The class given is physicochemical. Conditions: for solubility: acidified Captisol solution. Here is the method: In an effort to evaluate the range of posaconazole solubilities that could be achieved at feasible pH's, a series of solutions was prepared with a fixed Captisol® concentration. Utilizing an acidic solution of 20% Captisol® (w/v), the solubility of posaconazole was increased more than 1000 times and it was determined that a target concentration of 5 mg/mL could be achieved.
Posaconazole solubility was also evaluated in acidified solutions with different Captisol® concentrations. […] Therefore, at some pH values, as the Captisol® concentration increases, the ratio of Captisol® to solubilized posaconazole will decrease. Based on this solubility effect, a formulation could be developed whereby for the same posaconazole daily dosage, the daily dose of Captisol® could be decreased.
Hydrochloric acid was used as an acidifier in the posaconazole formulation. However, several additional acidifiers (i.e., citric, sulfuric, maleic, phosphoric, acetic, L-tartaric, D-tartaric, DL-tartaric, methanesulfonic, naphthalenesulfonic, p-toluenesulfonic, lactic, L-lactic, L-ascorbic and malic acid, as well as, glycine hydrochloride) were also evaluated in regard to posaconazole solubilization.

Data set [3] in a line: Effect of co-solvents and non-ionic surfactants on posaconazole solubility in 100 mM Captisol. The class given is physicochemical. Conditions: pH 4.5, aqueous with cosolvent or surfactant or cyclodextrin, thermodynamic from solid. Here is the method:
In an effort to explore further improvements to the formulation, the effects of various co-solvents and non-ionic surfactants, on the solubility of posaconazole in a 100 mM Captisol® solution, were examined. The Captisol® solutions were adjusted with HCl to pH 4.5 and an appropriate amount of co-solvent was added. An excess amount of posaconazole was added to the pH-adjusted cyclodextrin/co-solvent solution and the solutions were allowed to equilibrate for a period of three days. The contents of the vials were then centrifuged and the supernatant was assayed for posaconazole.

The conditions of data set [4]: neutral and basic aqueous solutions; cited from earlier work.
The conditions of data set [5]: in water; cited from earlier work.

Turning to `CC[C@@H]([C@H](C)O)n1ncn(-c2ccc(N3CCN(c4ccc(OC[C@@H]5CO[C@@](Cn6cncn6)(c6ccc(F)cc6F)C5)cc4)CC3)cc2)c1=O` [Posaconazole, posaconazole], in data set [1] (pH 4.5), the “fold less solubility with gamma cyclodextrins than with Captisol” value is “approximately 8 fold”. Also, the solubility in data set [1] (highest posaconazole solubility achieved) was 189 µg/mL (≈ 0.27 mM); in data set [1] (posaconazole solubility), 1510 µg/mL (≈ 2.15 mM); in data set [2] (pH 3, aqueous with cosolvent or surfactant or cyclodextrin, 20% Captisol, pH 3.0), 8700 µg/mL (≈ 12.4 mM); in data set [2] (pH 3.1, aqueous with cosolvent or surfactant or cyclodextrin, 20% Captisol, pH 3.1, calculated average of measured solubility at pH 3.0 and pH 3.2), 7800 µg/mL (≈ 11.1 mM); in data set [2] (pH 3.1, aqueous with cosolvent or surfactant or cyclodextrin, 40% Captisol, pH 3.1), 22500 µg/mL (≈ 32.1 mM); in data set [2] (pH 3.2, aqueous with cosolvent or surfactant or cyclodextrin, 20% Captisol, pH 3.2) it was 6900 µg/mL (≈ 9.85 mM). In addition, the solubility was 5200 µg/mL (≈ 7.42 mM) in data set [2] (pH 3.4, aqueous with cosolvent or surfactant or cyclodextrin, 20% Captisol, pH 3.4); 4000 µg/mL (≈ 5.71 mM) in data set [2] (pH 3.6, aqueous with cosolvent or surfactant or cyclodextrin, 20% Captisol, pH 3.6); 3100 µg/mL (≈ 4.42 mM) in data set [2] (pH 3.8, aqueous with cosolvent or surfactant or cyclodextrin, 20% Captisol, pH 3.8); “less than 1 μg/mL” in data set [4]. In data set [2] (citric, sulfuric, maleic, phosphoric, acetic, tartaric, sulfonic, lactic, ascorbic, malic acids, glycine hydrochloride, same pH), the “posaconazole solubilization with additional acidifiers versus hydrochloric acid” value is listed as “no improvement in solubility”. In addition, the solubility at 3 days came to 1280 µg/mL in data set [3] (Captisol solution with co-solvent, 100 mM Captisol pH 4.5 + 10% PEG 400); 640 µg/mL in data set [3] (Captisol solution with co-solvent, 100 mM Captisol pH 4.5 + 10% PVP); 410 µg/mL in data set [3] (Captisol solution with co-solvent, 100 mM Captisol pH 4.5 + 10% Propylene Glycol); 1630 µg/mL in data set [3] (Captisol solution with surfactant, 100 mM Captisol pH 4.5 + 0.1% Poloxamer F-68); 1710 µg/mL in data set [3] (Captisol solution with surfactant, 100 mM Captisol pH 4.5 + 0.1% Tween 20); 1740 µg/mL in data set [3] (Captisol solution with surfactant, 100 mM Captisol pH 4.5 + 0.1% Tween 80). Further, the solubility at 3 days in data set [3] (Captisol solution, Control (100 mM Captisol), pH 4.5, three days equilibration) came out at 1770 µg/mL (≈ 2.53 mM).
With SBE (4.6)-Et (3.5)-β cyclodextrin, the “fold more posaconazole solubilized than Captisol” value in data set [1] (pH 4.5) was found to be 2.6 fold.
Still for that read-out and setting: the result for SBE (4.6)-Et (8.5)-β cyclodextrin reads 6.6 fold.
In the case of “Sulfobutyl ether-β-cyclodextrins, (SBE-β-CD) sodium salt [Captisol®]”, the solubility in data set [5] is given as above 800 mg/mL in water.
